Data: US9957271B2, “Substituted bicyclic aza-heterocycles and analogues as sirtuin modulators” (GlaxoSmithKline, LLC, priority 2012, dated 2018)

What was measured:
SIRT1 [1] = biological target: T1, SIRT1 (Homo sapiens, UniProt Q96EB6); assay: TAMRA based mass spectrometry assay of SIRT1 activity; format: biochemical; conditions: for Emax: read-out: TAMRA % Fold Act
T1 sequence (Q96EB6 1-747): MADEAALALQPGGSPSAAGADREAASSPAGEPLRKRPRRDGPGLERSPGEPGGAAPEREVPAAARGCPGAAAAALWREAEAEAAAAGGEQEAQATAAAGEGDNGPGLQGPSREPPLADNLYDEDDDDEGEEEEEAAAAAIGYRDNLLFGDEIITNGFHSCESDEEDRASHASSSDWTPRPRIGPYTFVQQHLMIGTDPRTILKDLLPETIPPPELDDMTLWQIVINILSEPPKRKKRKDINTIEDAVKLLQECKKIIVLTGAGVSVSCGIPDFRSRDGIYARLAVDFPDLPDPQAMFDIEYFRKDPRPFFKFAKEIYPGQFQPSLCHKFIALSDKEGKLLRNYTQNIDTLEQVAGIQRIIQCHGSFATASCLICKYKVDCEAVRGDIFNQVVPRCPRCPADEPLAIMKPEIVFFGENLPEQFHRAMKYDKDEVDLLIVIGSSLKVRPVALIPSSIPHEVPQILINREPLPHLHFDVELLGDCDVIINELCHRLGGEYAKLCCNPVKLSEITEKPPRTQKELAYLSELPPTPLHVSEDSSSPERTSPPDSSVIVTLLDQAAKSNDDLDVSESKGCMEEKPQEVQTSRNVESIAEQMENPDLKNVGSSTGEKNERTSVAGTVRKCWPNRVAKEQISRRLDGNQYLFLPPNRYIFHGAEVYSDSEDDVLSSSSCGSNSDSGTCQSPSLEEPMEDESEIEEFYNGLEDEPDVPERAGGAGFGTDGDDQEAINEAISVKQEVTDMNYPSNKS
How it was run: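 Deacetylation of a biotinylated, TAMRA-tagged p53-based peptide (0.5 μM) by 10 nM His-tagged SIRT1 with 120 μM βNAD+, 25 °C for 25 min, pH 8 Tris-acetate buffer, across a compound concentration range. Quenched by formic acid and read by mass spec as product peptide or OAADPR; activity relative to DMSO reactions, nicotinamide defining maximal inhibition.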

SIRT1 [2] = biological target: T1, SIRT1; assay: Trp mass spectrometry assay of SIRT1 activity; format: biochemical; conditions: for Emax: read-out: Trp % Fold Act
How it was run: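 Activation readout: EC1.5 (concentration raising activity 50% over control) and percent maximum activation, from mass-spec quantitation of OAADPR or deacetylated Trp peptide. Reaction: 0.5 μM acetylated Trp peptide, 120 μM βNAD+, 10 nM bacterially expressed N-His SIRT1, pH 7.5 HEPES buffer with […], 25 min at 25° C.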

[3] = TAMRA assay, concentration giving 150% activation of SIRT1
[4] = TAMRA assay, percent maximum fold activation
[5] = Trp assay, concentration giving 150% activation of SIRT1
[6] = Trp assay, percent maximum fold activation
[7] = TAMRA peptide substrate, concentration giving 150% activation of SIRT1
[8] = TAMRA peptide substrate, percent maximum fold activation
[9] = Trp peptide substrate, concentration giving 150% activation of SIRT1
[10] = Trp peptide substrate, percent maximum fold activation
[11] = concentration of test compound giving 150% activation of SIRT1, TAMRA peptide substrate
[12] = percent maximum fold activation of SIRT1, TAMRA peptide substrate
[13] = concentration of test compound giving 150% activation of SIRT1, Trp peptide substrate
[14] = percent maximum fold activation of SIRT1, Trp peptide substrate

TAMRA EC1.5 (μM) (SIRT1 [1]; [3])	Emax (SIRT1 [1]; [4]) [%]	Trp EC1.5 (μM) (SIRT1 [2]; [5])	Emax (SIRT1 [2]; [6]) [%]	SMILES	other results
B (EC1.5 1-25 μM)	< 350	A (EC1.5<1 μM)	≥ 350	Cc1ncccc1NC(=O)c1cnn2ccc(-c3ccccc3OC(F)(F)F)nc12 [Compound 622]	–
A (EC1.5<1 μM)	≥ 350	B (EC1.5 1-25 μM)	< 350	O=C(Nc1cnn2ccc(-c3ccccc3C(F)(F)F)nc12)c1ncc(F)cc1F [Compound 749]	–
A (EC1.5<1 μM)	≥ 350	B (EC1.5 1-25 μM)	< 350	O=C(Nc1cnn2ccc(-c3ccccc3C(F)(F)F)nc12)c1cccc(-n2cnnc2)n1 [Compound 748]	–
C (EC1.5>25 μM)	< 350	C (EC1.5>25 μM)	< 350	O=C(Nc1ccc(F)cn1)c1cnn2ccc(-c3ccccc3OC(F)(F)F)nc12 [Compound 609]	–
B (EC1.5 1-25 μM)	≥ 350	A (EC1.5<1 μM)	< 350	Cc1cc(C)c(NC(=O)c2c(C)nn3ccc(-c4ccccc4Br)nc23)cn1 [Compound 826]	–
A (EC1.5<1 μM)	< 350	C (EC1.5>25 μM)	< 350	COc1ccc(NC(=O)c2c(C)nc3ccc(-c4cccc(OC(F)(F)F)c4)nn23)nn1 [Compound 718]	–
B (EC1.5 1-25 μM)	≥ 350	C (EC1.5>25 μM)	< 350	Cc1cnc(C(=O)Nc2c(C)nc3ccc(-c4ccccc4C(F)(F)F)nn23)s1 [Compound 381]	–
B (EC1.5 1-25 μM)	< 350	A (EC1.5<1 μM)	< 350	Cc1ccc(NC(=O)c2c(C)nc3ccc(-c4cccc(F)c4)nn23)nn1 [Compound 716]	–
B (EC1.5 1-25 μM)	< 350	A (EC1.5<1 μM)	< 350	Cc1nc2ccc(-c3cccc(OC[C@H](O)CO)c3)nn2c1C(=O)Nc1ccc(F)cn1 [Compound 821]	–
C (EC1.5>25 μM)	< 350	C (EC1.5>25 μM)	< 350	Cc1ncccc1C(=O)Nc1cnc2ccc(-c3ccccc3C(F)(F)F)nn12 [Compound 392]	–
A (EC1.5<1 μM)	≥ 350	A (EC1.5<1 μM)	≥ 350	Cc1nc2c(OC[C@H](O)CO)cc(-c3ccccc3C(F)(F)F)nn2c1C(=O)Nc1cccnn1 [Compound 773, (R)-8-(2,3-dihydroxypropoxy)-2-methyl-N-(pyridazin-3-yl)-6-(2-(trifluoromethyl)phenyl)imidazo[1,2-b]pyridazine-3-carboxamide]	–
A (EC1.5<1 μM)	≥ 350	A (EC1.5<1 μM)	< 350	Cc1cnc(NC(=O)c2c(C)nc3ccc(-c4ccccc4OC[C@H](O)CO)nn23)s1 [Compound 829]	–

The next lines start with the compound.

SMILES	TAMRA EC1.5 (μM) (SIRT1 [1]; [3])	Emax (SIRT1 [1]; [4]) [%]	Trp EC1.5 (μM) (SIRT1 [2]; [5])	Emax (SIRT1 [2]; [6]) [%]	other results
Cc1nc(C(=O)Nc2cnc3cc(C)c(-c4ccccc4C(F)(F)F)nn23)c(C)s1 [Compound 445]	–	–	–	–	TAMRA EC1.5 (SIRT1 [1]; [7]): A (EC1.5<1 μM); Emax (SIRT1 [1]; [8]): ≥ 350%; Trp EC1.5 (SIRT1 [2]; [9]): B (EC1.5 1-25 μM); Emax (SIRT1 [2]; [10]): < 350%
CC1(COc2ccnc(NC(=O)c3cnc4ccc(-c5ccccc5C(F)(F)F)nn34)n2)COC1 [Compound 340]	A (EC1.5<1 μM)	≥ 350	A (EC1.5<1 μM)	≥ 350	–
O=C(Nc1cnc2ccc(-c3ccccc3F)nn12)c1ccncn1 [Compound 281]	C (EC1.5>25 μM)	< 350	C (EC1.5>25 μM)	< 350	–
Cn1ccc(NC(=O)c2cnc3ccc(-c4ccccc4C(F)(F)F)nn23)n1 [Compound 112]	–	–	–	–	TAMRA EC1.5 (μM) (SIRT1 [1]; [11]): B (EC1.5 1-25 μM); Emax (SIRT1 [1]; [12]): ≥ 350%; Trp EC1.5 (μM) (SIRT1 [2]; [13]): B (EC1.5 1-25 μM); Emax (SIRT1 [2]; [14]): < 350%
O=C(Nc1cnn2ccc(-c3ccccc3C(F)(F)F)nc12)c1ccccn1 [Compound 249]	A (EC1.5<1 μM)	≥ 350	B (EC1.5 1-25 μM)	< 350	–
O=C(Nc1cnccn1)c1cnc2ccc(-c3ccccc3Cl)nn12 [Compound 119]	–	–	–	–	TAMRA EC1.5 (μM) (SIRT1 [1]; [11]): B (EC1.5 1-25 μM); Emax (SIRT1 [1]; [12]): < 350%; Trp EC1.5 (μM) (SIRT1 [2]; [13]): C (EC1.5>25 μM); Emax (SIRT1 [2]; [14]): < 350%
Cc1nc(C(=O)Nc2cnc3cc(C)c(-c4ccccc4C(F)(F)F)nn23)cs1 [Compound 433]	–	–	–	–	TAMRA EC1.5 (SIRT1 [1]; [7]): A (EC1.5<1 μM); Emax (SIRT1 [1]; [8]): ≥ 350%; Trp EC1.5 (SIRT1 [2]; [9]): C (EC1.5>25 μM); Emax (SIRT1 [2]; [10]): < 350%
O=C(Nc1cccc(N2CCOCC2)n1)c1cnc2ccc(-c3ccccc3Cl)nn12 [Compound 95]	–	–	–	–	TAMRA EC1.5 (μM) (SIRT1 [1]; [11]): A (EC1.5<1 μM); Emax (SIRT1 [1]; [12]): ≥ 350%; Trp EC1.5 (μM) (SIRT1 [2]; [13]): A (EC1.5<1 μM); Emax (SIRT1 [2]; [14]): < 350%
O=C(Nc1cnc2ccc(-c3ccccc3C(F)(F)F)nn12)c1cccc(OCC(O)CO)n1 (stereo not drawn) [Compound 83]	–	–	–	–	TAMRA EC1.5 (μM) (SIRT1 [1]; [11]): A (EC1.5<1 μM); Emax (SIRT1 [1]; [12]): ≥ 350%; Trp EC1.5 (μM) (SIRT1 [2]; [13]): A (EC1.5<1 μM); Emax (SIRT1 [2]; [14]): ≥ 350%
COc1cccc(NC(=O)c2cnc3ccc(-c4ccccc4F)nn23)n1 [Compound 244]	B (EC1.5 1-25 μM)	< 350	A (EC1.5<1 μM)	< 350	–
Cc1nc2ccc(-c3ccccc3C(F)(F)F)nn2c1NC(=O)c1ccncn1 [Compound 377]	B (EC1.5 1-25 μM)	< 350	C (EC1.5>25 μM)	< 350	–
Cn1nccc1C(=O)Nc1cnc2ccc(-c3ccccc3C(F)(F)F)nn12 [Compound 93]	–	–	–	–	TAMRA EC1.5 (μM) (SIRT1 [1]; [11]): C (EC1.5>25 μM); Emax (SIRT1 [1]; [12]): < 350%; Trp EC1.5 (μM) (SIRT1 [2]; [13]): C (EC1.5>25 μM); Emax (SIRT1 [2]; [14]): < 350%
COc1nccc(NC(=O)c2cnc3ccc(-c4ccccc4C(F)(F)F)nn23)n1 [Compound 173]	–	–	–	–	TAMRA EC1.5 (μM) (SIRT1 [1]; [11]): A (EC1.5<1 μM); Emax (SIRT1 [1]; [12]): ≥ 350%; Trp EC1.5 (μM) (SIRT1 [2]; [13]): B (EC1.5 1-25 μM); Emax (SIRT1 [2]; [14]): ≥ 350%
Cc1nc(C(=O)Nc2cnc3ccc(-c4ccccc4OC(F)(F)F)nn23)cs1 [Compound 317]	A (EC1.5<1 μM)	≥ 350	C (EC1.5>25 μM)	< 350	–
Cc1cc(NC(=O)c2cnc3ccc(-c4ccccc4OCC(O)CO)nn23)cc(C)n1 (stereo not drawn) [Compound 415]	–	–	–	–	TAMRA EC1.5 (SIRT1 [1]; [7]): A (EC1.5<1 μM); Emax (SIRT1 [1]; [8]): ≥ 350%; Trp EC1.5 (SIRT1 [2]; [9]): B (EC1.5 1-25 μM); Emax (SIRT1 [2]; [10]): ≥ 350%
O=C(Nc1ccnc(OCC(O)CO)c1)c1cnc2ccc(-c3ccccc3F)nn12 (stereo not drawn) [Compound 284]	C (EC1.5>25 μM)	< 350	C (EC1.5>25 μM)	< 350	–
O=C(Nc1cccnc1N1CCOCC1)c1cnc2ccc(-c3ccccc3C(F)(F)F)nn12 [Compound 215]	C (EC1.5>25 μM)	< 350	C (EC1.5>25 μM)	< 350	–
Cc1nn2ccc(-c3ccccc3C(F)(F)F)nc2c1NC(=O)c1ccncn1 [Compound 572]	–	–	–	–	TAMRA EC1.5 (SIRT1 [1]; [7]): C (EC1.5>25 μM); Emax (SIRT1 [1]; [8]): < 350%; Trp EC1.5 (SIRT1 [2]; [9]): C (EC1.5>25 μM); Emax (SIRT1 [2]; [10]): < 350%
Cc1cc2ncc(C(=O)Nc3cccnc3)n2nc1-c1ccccc1C(F)(F)F [Compound 210]	B (EC1.5 1-25 μM)	≥ 350	B (EC1.5 1-25 μM)	≥ 350	–
O=C(Nc1cnc2ccc(-c3ccccc3Cl)nn12)c1ccccn1 [Compound 287]	A (EC1.5<1 μM)	≥ 350	C (EC1.5>25 μM)	< 350	–
Cc1cc(NC(=O)c2cnc3ccc(-c4ccccc4OC(F)(F)F)nn23)ccn1 [Compound 364]	A (EC1.5<1 μM)	≥ 350	A (EC1.5<1 μM)	≥ 350	–
